Laboratory results as given in patent US12667602B2, “Composition for preventing, treating or alleviating diabetes, comprising LGI3-derived peptide as an active ingredient” (CHUNG-ANG UNIVERSITY INDUSTRY-ACADEMIC COOPERATION …, priority 2019, dated 2026).
≈ marks a conversion by molar mass, not a printed value. Residues, ends and D or L forms follow the SMILES beside them.

Test: Solubility in water
Format: physicochemical

With `CC(C)C[C@H](NC(=O)[C@H](CCC(=O)O)NC(=O)[C@H](CCC(N)=O)NC(=O)[C@H](Cc1ccccc1)NC(=O)[C@H](CCCNC(=N)N)NC(=O)[C@@H](NC(=O)[C@H](Cc1ccccc1)NC(=O)[C@H](CCCCN)NC(=O)[C@H](CCC(N)=O)NC(=O)[C@H](CCCNC(=N)N)NC(=O)CNC(=O)[C@H](CCC(=O)O)NC(=O)[C@@H](N)CC(=O)O)C(C)C)C(=O)N[C@@H](C)C(=O)N[C@H](C(=O)O)C(C)C` [P34] (H-DEGRQKFVRFQELAV-OH; N-terminus and C-terminus assumed) as the molecule, how does the solubility read?
Its solubility is 1000 µg/mL (≈ 549 µM).

With `CC(C)C[C@H](NC(=O)[C@H](C)NC(=O)[C@H](CCC(N)=O)NC(=O)[C@H](Cc1c[nH]cn1)NC(=O)[C@H](CO)NC(=O)[C@H](Cc1ccc(O)cc1)NC(=O)[C@H](Cc1ccccc1)NC(=O)CNC(=O)[C@H](CC(N)=O)NC(=O)[C@@H](N)CCC(N)=O)C(=O)N[C@@H](Cc1c[nH]cn1)C(=O)N[C@@H](C)C(=O)N[C@@H](Cc1c[nH]c2ccccc12)C(=O)N[C@@H](Cc1c[nH]cn1)C(=O)N[C@@H](CCCNC(=N)N)C(=O)O` [P25] (H-QNGFYSHQALHAWHR-OH; N-terminus and C-terminus assumed) as the molecule, how does the solubility read?
Its solubility is 10000 µg/mL (≈ 5400 µM).
